From ChEMBL document CHEMBL1131424 (J Med Chem, 1998)
pKi: −log10 of the molar value.

Molecular target: T1, 5-hydroxytryptamine receptor 1A (Rattus norvegicus, UniProt P19327)
T1 sequence (P19327 whole entry): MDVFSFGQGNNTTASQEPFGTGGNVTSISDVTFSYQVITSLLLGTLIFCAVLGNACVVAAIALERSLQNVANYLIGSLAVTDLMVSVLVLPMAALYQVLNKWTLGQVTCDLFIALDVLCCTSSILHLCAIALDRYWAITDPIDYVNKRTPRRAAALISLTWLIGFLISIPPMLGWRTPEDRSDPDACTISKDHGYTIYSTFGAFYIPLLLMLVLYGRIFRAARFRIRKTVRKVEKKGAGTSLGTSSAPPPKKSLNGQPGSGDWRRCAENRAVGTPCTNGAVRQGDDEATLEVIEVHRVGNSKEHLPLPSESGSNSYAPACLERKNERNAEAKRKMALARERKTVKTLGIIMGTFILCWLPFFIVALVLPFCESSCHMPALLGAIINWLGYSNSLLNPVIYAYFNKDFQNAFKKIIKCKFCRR
Assay: Binding affinity for rat cortex 5-hydroxytryptamine 1A receptor, by displacement of 0.2 nM [3H]8-OH-DPAT radioligand

Compound | pKi
CN(C)c1cccc(CNCC2CCN(C(=O)c3ccc(Cl)c(Cl)c3)CC2)n1 | 8.85
NC(=O)c1cccc(CNCC2CCN(C(=O)c3ccc(Cl)c(Cl)c3)CC2)n1 | 7.33
O=C(c1ccc(Cl)c(Cl)c1)N1CCC(CNCc2cccc(-c3ncc[nH]3)n2)CC1 | 8.57
Fc1ccc(C(CCCNCc2cccc(-n3cccn3)n2)c2ccc(F)cc2)cc1 | 6.82
O=C(c1ccc(Cl)c(Cl)c1)N1CCC(CNCc2cccc(-c3cnco3)n2)CC1 | 9.03
O=C(c1ccc(Cl)c(Cl)c1)N1CCC(CNCc2cccc(-c3nccs3)n2)CC1 | 9.46
N#Cc1cccc(CNCC2CCN(C(=O)c3ccc(Cl)c(Cl)c3)CC2)n1 | 7.30
O=C(N1CCC(CNCc2cccc(-n3cccn3)n2)CC1)C12C[C@H]3C[C@@H](C1)C[C@@H](C2)C3 | 7.88
CCCN(CCC)Cc1cccc(-n2cccn2)n1 | < 5.00
O=C(c1ccc(Cl)c(Cl)c1)N1CCC(CNCc2cc(Cl)ccn2)CC1 | 8.04
O=C(c1ccc(Cl)c(Cl)c1)N1CCC(CNCc2cccc(-c3cc[nH]n3)n2)CC1 | 9.27
O=C(c1ccc(Cl)c(Cl)c1)N1CCC(CNCc2cccc(-c3cccs3)n2)CC1 | 8.86
CN(CCCCNCc1cccc(-n2cccn2)n1)C(=O)c1ccccc1 | 6.77
O=C(c1ccc(Cl)c(Cl)c1)N1CCC(CNCc2cccc(-n3cccc3)c2)CC1 | 6.53
O=C(c1ccc(Cl)c(Cl)c1)N1CCC(CNCCc2cccc(F)n2)CC1 | 8.50
O=C(c1ccc(Cl)c(Cl)c1)N1CCC(CNCCCc2ccccn2)CC1 | 7.37
CCCCOc1cccc(CNCC2CCN(C(=O)c3ccc(Cl)c(Cl)c3)CC2)n1 | 7.73
O=C(NCC#CCNCc1cccc(-n2cccn2)n1)c1ccc(Cl)c(Cl)c1 | 6.61

Compound | pKi
O=C(c1ccc(Cl)c(Cl)c1)N1CCC(CNCCc2ccccn2)CC1 | 8.92
O=C(c1ccc(Cl)c(Cl)c1)N1CCC(CNCCc2ccncc2)CC1 | < 6.00
O=C(NCCNCc1cccc(-n2cccn2)n1)C12C[C@H]3C[C@@H](C1)C[C@@H](C2)C3 | 7.56
O=C(c1ccc(Cl)c(Cl)c1)N1CCC(CNCCc2cccnc2)CC1 | 6.03
CNc1cccc(CNCC2CCN(C(=O)c3ccc(Cl)c(Cl)c3)CC2)n1 | 8.76
C[S+]([O-])c1cccc(CNCC2CCN(C(=O)c3ccc(Cl)c(Cl)c3)CC2)n1 (configuration not stated) | 7.33
CCCN(C)c1cccc(CNCC2CCN(C(=O)c3ccc(Cl)c(Cl)c3)CC2)n1 | 7.93
O=C(c1ccc(Cl)c(Cl)c1)N1CCC(CNCc2cccnc2)CC1 | 6.38
COc1cccc(CNCC2CCN(C(=O)c3ccc(Cl)c(Cl)c3)CC2)n1 | 8.46
Cn1c(=O)cnn(CCCCNCc2cccc(-n3cccn3)n2)c1=O | 6.96
COc1ccc2[nH]cc(CCNCc3cccc(-n4cccn4)n3)c2c1 | 6.18
CC(C)c1cccc(CNCC2CCN(C(=O)c3ccc(Cl)c(Cl)c3)CC2)n1 | 9.20
Cc1cccc(C(=O)NCCCCNCc2cccc(-n3cccn3)n2)c1 | 7.85
CSc1cccc(CNCC2CCN(C(=O)c3ccc(Cl)c(Cl)c3)CC2)n1 | 8.59
O=C(c1ccc(Cl)c(Cl)c1)N1CCC(CNCc2cccc(F)c2)CC1 | 7.83
O=C(c1ccc(Cl)c(Cl)c1)N1CCC(CNCc2cccc(-c3ccco3)n2)CC1 | 9.14
CN(C)c1cccc(CNCC2CCN(C(=O)c3ccc(Cl)c(Cl)c3)CC2)c1 | 7.12

Now from value to compound:

pKi | Compound
6.19 | O=C(c1ccc(Cl)c(Cl)c1)N1CCC(CNCc2cc(-n3cccn3)ccn2)CC1
8.85 | Cc1ccc(C(=O)N2CCC(CNCc3cccc(-n4cccn4)n3)CC2)cc1Cl
8.64 | O=C(c1cccc(Cl)c1)N1CCC(CNCc2cccc(-n3cccn3)n2)CC1
8.80 | O=C(c1ccc(Cl)c(Cl)c1)N1CCC(CNCc2cccc(N3CCCC3)n2)CC1
7.87 | O=C(c1cccc(F)c1)N1CCC(CNCc2cccc(-n3cccn3)n2)CC1
8.78 | O=C(c1ccc(Cl)c(Cl)c1)N1CCC(CNCc2cccc(-n3cccn3)n2)CC1
7.58 | O=C(c1cc(Cl)cc(Cl)c1)N1CCC(CNCc2cccc(-n3cccn3)n2)CC1
8.81 | O=C(c1ccc(F)c(Cl)c1)N1CCC(CNCc2cccc(-n3cccn3)n2)CC1
8.45 | O=C(c1ccc(Cl)c(Cl)c1)N1CCC(CNCCc2cccc(-n3cccn3)n2)CC1
7.31 | O=C(c1ccc(Cl)cc1)N1CCC(CNCc2cccc(-n3cccn3)n2)CC1
6.70 | O=S(=O)(c1ccc(Cl)c(Cl)c1)N1CCC(CNCc2cccc(-n3cccn3)n2)CC1
7.75 | Clc1ccc(CN2CCC(CNCc3cccc(-n4cccn4)n3)CC2)cc1Cl
7.00 | O=C(c1cccc(Cl)c1Cl)N1CCC(CNCc2cccc(-n3cccn3)n2)CC1
6.78 | COC(=O)c1ccc(C(=O)N2CCC(CNCc3cccc(-n4cccn4)n3)CC2)cc1Cl
7.53 | O=C(C1CCCCC1)N1CCC(CNCc2cccc(-n3cccn3)n2)CC1
8.46 | Cc1cccc(C(=O)N2CCC(CNCc3cccc(-n4cccn4)n3)CC2)c1

pKi | Compound
7.48 | O=C(c1ccccc1)N1CCC(CNCc2cccc(-n3cccn3)n2)CC1
8.22 | O=C(c1ccc(Cl)c(Cl)c1)N1CCC(CNCc2cccc(-c3ccc[nH]3)n2)CC1
8.13 | O=C(c1ccc(Cl)c(Cl)c1)N1CCC(CNCc2cccc(-n3ccnc3)n2)CC1
8.37 | O=C(c1ccc(Cl)c(Cl)c1)N1CCC(CNCc2cccc(-n3cccc3)n2)CC1
8.45 | O=C(c1cccc(C(F)(F)F)c1)N1CCC(CNCc2cccc(-n3cccn3)n2)CC1
6.39 | O=C(c1ccc(Cl)c(Cl)c1)N1CCCC(CNCc2cccc(-n3cccn3)n2)C1 (configuration not stated)
9.43 | O=C(c1ccc(Cl)c(Cl)c1)N1CCC(CNCc2cccc(N3CCC3)n2)CC1
8.05 | O=C(c1ccc(Cl)c(Cl)c1)N1CCC(CNCc2cccc(F)n2)CC1
7.75 | N#Cc1cccc(C(=O)N2CCC(CNCc3cccc(-n4cccn4)n3)CC2)c1
8.34 | O=C(c1ccc(Cl)c(Cl)c1)N1CCC(CNCc2cccc(Cl)n2)CC1
6.88 | O=C(c1ccccc1Cl)N1CCC(CNCc2cccc(-n3cccn3)n2)CC1
7.58 | O=C(c1ccc(Cl)c(Cl)c1)N1CCC(CNCc2ccccn2)CC1
7.97 | CCOc1cccc(C(=O)N2CCC(CNCc3cccc(-n4cccn4)n3)CC2)c1
8.13 | O=C(c1ccc(Cl)c(Cl)c1)N1CCC(CNCc2cccc(-c3ccccc3)n2)CC1
8.04 | COc1ccc(C(=O)N2CCC(CNCc3cccc(-n4cccn4)n3)CC2)cc1Cl
8.39 | Cc1cccc(CNCC2CCN(C(=O)c3ccc(Cl)c(Cl)c3)CC2)n1
